Test results published in patent US9051310B2, “Nicotinamide derivative or salt thereof” (FUJIFILM Corporation, priority 2011, dated 2015).

Legend:
[1] = biological target: T1, glutathione S-transferase (GST)-linked full-length human Syk protein (Homo sapiens, UniProt P43405); experiment: Syk enzyme assay; type: biochemical; settings: 0.83 nM Syk, time-resolved fluorescence; read-out: IC50 of Syk-inhibitory activity
T1 construct: glutathione S-transferase (GST)-linked full-length human Syk protein; purchased Carna Biosciences; host or cells: Baculovirus expression system
Method in brief: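 Phosphotyrosine on a biotin-peptide substrate (0.5 μM) was read by time-resolved fluorescence at 615 and 665 nm with Eu-anti-pTyr antibody and APC-streptavidin after 1 h EDTA stop.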

[2] = system: THP-1 cells (TNFα secretion on human IgG-coated plate); experiment: TNFα generation assay; type: cell-based; settings: IFN-γ differentiated THP-1 cells, 7 hours, AlphaLISA, read-out: IC50 of TNFα generation inhibitory activity
Procedure: THP-1 cells (2×10^5 cells/ml), which were human monocytoid cells, were cultured in the presence of 10 ng/ml IFN-γ (Roche) for 2 days, and they were induced to differentiate into macrophage-like cells. The differentiation-induced THP-1 cells were recovered, and the cells (1×10^6 cell/ml) were then allowed to react with a predetermined concentration of test compound at room temperature for 30 minutes. On the other hand, 100 μl of human IgG (10 μg/ml, SIGMA-ALDRICH) diluted with PBS was added to a 96-well plate, and it was then incubated at room temperature overnight. Thereafter, the resultant was washed with PBS twice to produce a human IgG-coated plate. A cell fluid that contained a compound was plated on the obtained human IgG-coated plate (5×10^4 cells/well), and it was then cultured for 7 hours. Thereafter, the cultured solution was recovered, and the amount of TNFα secreted into the culture solution was then measured by the AlphaLISA method (PerkinElmer).

CCn1ncc2cc(Nc3nc(N[C@H](C4CCC4)[C@H](C)N)c(F)cc3C(N)=O)ccc21 [Example 2-9]
IC50 [1]: < 10 nM | IC50 [2]: 65 to 130 nM

C[C@H](N)[C@H](Nc1nc(Nc2ccc3cnn(C)c3c2)c(C(N)=O)cc1F)C1CCC1 [Example 2-10, 6-(((1R,2S)-2-amino-1-cyclobutylpropyl)amino)-5-fluoro-2-((1-methyl-1H-indazol-6-yl)amino)nicotinamide]
IC50 [1]: < 10 nM | IC50 [2]: < 65 nM

CCn1ncc2ccc(Nc3nc(N[C@H](CC(C)C)[C@H](C)N)c(F)cc3C(N)=O)cc21 [Example 2-11, 6-(((2S,3R)-2-amino-5-methylhexan-3-yl)amino)-2-((1-ethyl-1H-indazol-6-yl)amino)-5-fluoronicotinamide]
IC50 [1]: < 10 nM | IC50 [2]: 130 to 200 nM

CCCC[C@@H](Nc1nc(Nc2cnc(C)c(C)c2)c(C(N)=O)cc1F)[C@H](C)N [Example 2-19, 6-(((2S,3R)-2-aminoheptan-3-yl)amino)-2-((5,6-dimethylpyridin-3-yl)amino)-5-fluoronicotinamide]
IC50 [1]: < 10 nM | IC50 [2]: 130 to 200 nM

NC(=O)c1cc(F)c(N[C@@H]2CCCC[C@@H]2N)nc1Nc1cccc2c1cnn2CC(F)F [Example 2-20, 6-(((1R,2S)-2-aminocyclohexyl)amino)-2-((1-(2,2-difluoroethyl)-1H-indazol-4-yl)amino)-5-fluoronicotinamide]
IC50 [1]: < 10 nM | IC50 [2]: 65 to 130 nM

C[C@H](N)[C@H](Nc1nc(Nc2cncc(-n3cccn3)c2)c(C(N)=O)cc1F)C1CCC1 [Example 2-24, 2-((5-(1H-pyrazol-1-yl)pyridin-3-yl)amino)-6-(((1R,2S)-2-amino-1-cyclobutylpropyl)amino)-5-fluoronicotinamide]
IC50 [1]: < 10 nM | IC50 [2]: 130 to 200 nM

Cc1cccc(Nc2nc(N[C@H](C3CCC3)[C@H](C)N)c(F)cc2C(N)=O)c1 [Example 2-25, 6-(((1R,2S)-2-amino-1-cyclobutylpropyl)amino)-5-fluoro-2-(m-tolylamino)nicotinamide]
IC50 [1]: < 10 nM | IC50 [2]: 130 to 200 nM

Cc1cc(C)cc(Nc2nc(N[C@H](C3CCC3)[C@H](C)N)c(F)cc2C(N)=O)c1 [Example 2-26, 6-(((1R,2S)-2-amino-1-cyclobutylpropyl)amino)-2-((3,5-dimethylphenyl)amino)-5-fluoronicotinamide]
IC50 [1]: < 10 nM | IC50 [2]: 130 to 200 nM

COc1cccc(Nc2nc(N[C@H](C3CCC3)[C@H](C)N)c(F)cc2C(N)=O)c1 [Example 2-27, 6-(((1R,2S)-2-amino-1-cyclobutylpropyl)amino)-5-fluoro-2-((3-methoxyphenyl)amino)nicotinamide]
IC50 [1]: < 10 nM | IC50 [2]: 65 to 130 nM

COc1ccc(Nc2nc(N[C@H](C3CCC3)[C@H](C)N)c(F)cc2C(N)=O)cc1OC [Example 2-29]
IC50 [1]: < 10 nM | IC50 [2]: 65 to 130 nM

Cc1ncc(Nc2nc(N[C@H](c3ccc(F)cc3)[C@H](C)N)c(F)cc2C(N)=O)cc1-n1nccn1 [Example 2-32, 6-(((1R,2S)-2-amino-1-(4-fluorophenyl)propyl)amino)-5-fluoro-2-((6-methyl-5-(2H-1,2,3-triazol-2-yl)pyridin-3-yl)ammo)nicotinamide]
IC50 [1]: < 10 nM | IC50 [2]: 130 to 200 nM

CC[C@H](N)[C@@H](C)Nc1nc(Nc2cnc(C)c(-n3nccn3)c2)c(C(N)=O)cc1F [Example 2-33, 6-(((2R,3S)-3-aminopentan-2-yl)amino)-5-fluoro-2-((6-methyl-5-(2H-1,2,3-triazol-2-yl)pyridin-3-yl)amino)nicotinamide]
IC50 [1]: 10 to 50 nM | IC50 [2]: 130 to 200 nM

CC(C)C[C@@H](Nc1nc(Nc2ccc3cnn(C)c3c2)c(C(N)=O)cc1F)[C@H](C)N [Example 2-37, 6-(((2S,3R)-2-amino-5-methylhexan-3-yl)amino)-5-fluoro-2-((1-methyl-1H-indazol-6-yl)amino)nicotinamide]
IC50 [1]: < 10 nM | IC50 [2]: 65 to 130 nM

CCCC[C@@H](Nc1nc(Nc2ccc3cnn(C)c3c2)c(C(N)=O)cc1F)[C@H](C)N [Example 2-38, 6-(((2S,3R)-2-aminoheptan-3-yl)amino)-5-fluoro-2-((1-methyl-1H-indazol-6-yl)amino)nicotinamide]
IC50 [1]: < 10 nM | IC50 [2]: 65 to 130 nM
